Measurements reported in article PMC9492542, “Brain-restricted mTOR inhibition with binary pharmacology” (Nature, 2022).
Where two headings read alike, the source gives them in different places.

How the values were obtained:
476 purified kinases [1] = target: 476 purified kinases (Homo sapiens, UniProt Q96BR1); details: ZLYTE
Description: (§1) In vitro kinase inhibition assays were performed by SelectScreen Services (Thermo Fisher Scientific) using either Z’-LYTE (mTOR, Src, Csk, EGFR, HER2 and HGK), Adapta (LRRK2) or LanthaScreen (DDR2) assay format (standardized protocols can be accessed on the SelectScreen website: https://www.thermofisher.com/us/en/home/products-and-services/services/custom-services/screening-and-profiling-services/selectscreen-profiling-service/selectscreen-kinase-profiling-service.html. When indicated, recombinant FKBP12 protein was added to the assay mixture to a final concentration of 10 µM.

476 purified kinases [2] = target: 476 purified kinases (Homo sapiens, UniProt Q96NX5); details: ZLYTE
Description: as §1

476 purified kinases [3] = target: 476 purified kinases (Homo sapiens, UniProt P48729); details: ZLYTE
Description: as §1

476 purified kinases [4] = target: 476 purified kinases (Homo sapiens, UniProt O15075); details: ZLYTE
Description: as §1

476 purified kinases [5] = target: 476 purified kinases (Homo sapiens, UniProt Q8TF76); details: Adapta
Description: as §1

476 purified kinases [6] = target: 476 purified kinases (Homo sapiens, UniProt Q86Z02); details: ZLYTE; 10 nM
Description: as §1

476 purified kinases [7] = target: 476 purified kinases (Homo sapiens, UniProt Q16539); details: ZLYTE
Description: as §1

476 purified kinases [8] = target: 476 purified kinases (Homo sapiens, UniProt Q8NFD2)
Description: as §1

476 purified kinases [9] = target: 476 purified kinases (Homo sapiens, UniProt P50750); details: Adapta; 10 nM
Description: as §1

476 purified kinases [10] = target: 476 purified kinases (Homo sapiens, UniProt Q8N568); details: ZLYTE
Description: as §1

476 purified kinases [11] = target: 476 purified kinases (Homo sapiens, UniProt P37173)
Description: as §1

476 purified kinases [12] = target: 476 purified kinases (Homo sapiens, UniProt Q9NRM7)
Description: as §1

476 purified kinases [13] = target: 476 purified kinases (Homo sapiens, UniProt Q9UIK4); details: 10 nM compound + 10 µM FKBP12
Description: as §1

476 purified kinases [14] = target: 476 purified kinases (Homo sapiens, UniProt Q86V86); details: ZLYTE
Description: as §1

476 purified kinases [15] = target: 476 purified kinases (Homo sapiens, UniProt Q6DT37); details: ZLYTE
Description: as §1

476 purified kinases [16] = target: 476 purified kinases (Homo sapiens, UniProt Q13873)
Description: as §1

476 purified kinases [17] = target: 476 purified kinases (Homo sapiens, UniProt P06493); details: ZLYTE
Description: as §1

476 purified kinases [18] = target: 476 purified kinases (Homo sapiens, UniProt O43318); details: 10 nM compound + 10 µM FKBP12
Description: as §1

476 purified kinases [19] = target: 476 purified kinases (Homo sapiens, UniProt Q99759)
Description: as §1

476 purified kinases [20] = target: 476 purified kinases (Homo sapiens, UniProt Q15835)
Description: as §1

476 purified kinases [21] = target: 476 purified kinases (Homo sapiens, UniProt Q8NI60)
Description: as §1

476 purified kinases [22] = target: 476 purified kinases (Homo sapiens, UniProt Q7L7X3)
Description: as §1

476 purified kinases [23] = target: 476 purified kinases (Homo sapiens, UniProt Q96RR4)
Description: as §1

476 purified kinases [24] = target: 476 purified kinases (Homo sapiens, UniProt Q8IVH8)
Description: as §1

476 purified kinases [25] = target: 476 purified kinases (Homo sapiens, UniProt Q9H2X6); details: ZLYTE
Description: as §1

476 purified kinases [26] = target: 476 purified kinases (Homo sapiens, UniProt Q56UN5); details: ZLYTE
Description: as §1

476 purified kinases [27] = target: 476 purified kinases (Homo sapiens, UniProt Q14004)
Description: as §1

476 purified kinases [28] = target: 476 purified kinases (Homo sapiens, UniProt O75747)
Description: as §1

476 purified kinases [29] = target: 476 purified kinases (Homo sapiens, UniProt P23443); details: ZLYTE
Description: as §1

476 purified kinases [30] = target: 476 purified kinases (Homo sapiens, UniProt Q9UKI8)
Description: as §1

476 purified kinases [31] = target: 476 purified kinases (Homo sapiens, UniProt Q9Y2H1)
Description: as §1

476 purified kinases [32] = target: 476 purified kinases (Homo sapiens, UniProt P19525)
Description: as §1

476 purified kinases [33] = target: 476 purified kinases (Homo sapiens, UniProt P14616); details: ZLYTE
Description: as §1

476 purified kinases [34] = target: 476 purified kinases (Homo sapiens, UniProt Q13554); details: ZLYTE
Description: as §1

476 purified kinases [35] = target: 476 purified kinases (Homo sapiens, UniProt O76039); details: ZLYTE
Description: as §1

476 purified kinases [36] = target: 476 purified kinases (Homo sapiens, UniProt O75460)
Description: as §1

Chain of 476 purified kinases (Homo sapiens, UniProt Q16539) (Q16539 whole entry): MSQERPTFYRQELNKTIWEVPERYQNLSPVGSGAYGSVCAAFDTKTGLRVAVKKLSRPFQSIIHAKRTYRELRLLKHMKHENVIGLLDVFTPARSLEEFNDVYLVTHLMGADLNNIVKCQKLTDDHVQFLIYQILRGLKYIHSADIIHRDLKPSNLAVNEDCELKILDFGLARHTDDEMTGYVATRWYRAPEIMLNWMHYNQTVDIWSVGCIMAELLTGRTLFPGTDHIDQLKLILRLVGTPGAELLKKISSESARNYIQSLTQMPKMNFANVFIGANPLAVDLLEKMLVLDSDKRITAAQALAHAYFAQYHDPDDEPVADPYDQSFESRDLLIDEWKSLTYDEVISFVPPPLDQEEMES
Chain of 476 purified kinases (Homo sapiens, UniProt Q8N568) (Q8N568 whole entry): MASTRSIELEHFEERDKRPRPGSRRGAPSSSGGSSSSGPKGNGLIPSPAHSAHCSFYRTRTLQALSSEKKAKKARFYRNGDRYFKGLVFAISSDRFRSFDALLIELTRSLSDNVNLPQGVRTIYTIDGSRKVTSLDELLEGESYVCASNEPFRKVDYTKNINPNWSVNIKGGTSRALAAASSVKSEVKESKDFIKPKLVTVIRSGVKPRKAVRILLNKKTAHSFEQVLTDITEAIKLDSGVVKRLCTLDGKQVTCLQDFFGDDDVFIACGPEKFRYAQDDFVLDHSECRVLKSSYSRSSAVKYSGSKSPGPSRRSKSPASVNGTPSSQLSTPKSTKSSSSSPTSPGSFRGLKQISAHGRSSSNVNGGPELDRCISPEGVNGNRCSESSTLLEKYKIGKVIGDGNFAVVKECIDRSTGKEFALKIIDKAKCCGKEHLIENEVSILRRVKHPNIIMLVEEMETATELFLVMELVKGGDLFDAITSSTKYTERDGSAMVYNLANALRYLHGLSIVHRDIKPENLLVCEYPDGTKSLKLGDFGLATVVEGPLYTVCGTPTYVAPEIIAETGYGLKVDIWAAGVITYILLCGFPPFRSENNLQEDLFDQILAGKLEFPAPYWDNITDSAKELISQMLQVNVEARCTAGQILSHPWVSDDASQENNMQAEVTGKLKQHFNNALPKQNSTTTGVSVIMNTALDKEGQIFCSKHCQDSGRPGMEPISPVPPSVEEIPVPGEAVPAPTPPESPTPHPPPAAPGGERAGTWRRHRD
Chain of 476 purified kinases (Homo sapiens, UniProt Q96BR1) (Q96BR1 whole entry): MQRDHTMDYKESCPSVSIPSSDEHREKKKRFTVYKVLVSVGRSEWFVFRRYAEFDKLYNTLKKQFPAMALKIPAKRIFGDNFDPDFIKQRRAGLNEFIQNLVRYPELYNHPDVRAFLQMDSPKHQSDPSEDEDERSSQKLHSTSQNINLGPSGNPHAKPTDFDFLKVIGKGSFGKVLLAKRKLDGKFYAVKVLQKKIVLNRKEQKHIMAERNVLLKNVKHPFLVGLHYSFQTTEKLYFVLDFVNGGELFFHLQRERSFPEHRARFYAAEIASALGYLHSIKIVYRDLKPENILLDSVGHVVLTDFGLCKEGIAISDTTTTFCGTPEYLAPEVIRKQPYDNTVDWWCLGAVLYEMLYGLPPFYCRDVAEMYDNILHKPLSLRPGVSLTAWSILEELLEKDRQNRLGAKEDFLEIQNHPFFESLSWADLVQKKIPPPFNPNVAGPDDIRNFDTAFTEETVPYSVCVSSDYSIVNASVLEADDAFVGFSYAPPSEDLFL
Chain of 476 purified kinases (Homo sapiens, UniProt P48729) (P48729 whole entry): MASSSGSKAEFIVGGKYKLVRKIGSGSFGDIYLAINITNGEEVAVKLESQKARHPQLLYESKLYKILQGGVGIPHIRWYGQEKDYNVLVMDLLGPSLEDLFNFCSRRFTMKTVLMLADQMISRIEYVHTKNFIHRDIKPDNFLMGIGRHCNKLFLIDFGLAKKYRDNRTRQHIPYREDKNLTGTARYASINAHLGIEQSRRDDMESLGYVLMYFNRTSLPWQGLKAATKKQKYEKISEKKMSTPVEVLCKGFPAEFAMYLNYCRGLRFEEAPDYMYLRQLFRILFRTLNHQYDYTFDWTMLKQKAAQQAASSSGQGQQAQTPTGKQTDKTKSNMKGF
Chain of 476 purified kinases (Homo sapiens, UniProt Q7L7X3) (Q7L7X3 whole entry): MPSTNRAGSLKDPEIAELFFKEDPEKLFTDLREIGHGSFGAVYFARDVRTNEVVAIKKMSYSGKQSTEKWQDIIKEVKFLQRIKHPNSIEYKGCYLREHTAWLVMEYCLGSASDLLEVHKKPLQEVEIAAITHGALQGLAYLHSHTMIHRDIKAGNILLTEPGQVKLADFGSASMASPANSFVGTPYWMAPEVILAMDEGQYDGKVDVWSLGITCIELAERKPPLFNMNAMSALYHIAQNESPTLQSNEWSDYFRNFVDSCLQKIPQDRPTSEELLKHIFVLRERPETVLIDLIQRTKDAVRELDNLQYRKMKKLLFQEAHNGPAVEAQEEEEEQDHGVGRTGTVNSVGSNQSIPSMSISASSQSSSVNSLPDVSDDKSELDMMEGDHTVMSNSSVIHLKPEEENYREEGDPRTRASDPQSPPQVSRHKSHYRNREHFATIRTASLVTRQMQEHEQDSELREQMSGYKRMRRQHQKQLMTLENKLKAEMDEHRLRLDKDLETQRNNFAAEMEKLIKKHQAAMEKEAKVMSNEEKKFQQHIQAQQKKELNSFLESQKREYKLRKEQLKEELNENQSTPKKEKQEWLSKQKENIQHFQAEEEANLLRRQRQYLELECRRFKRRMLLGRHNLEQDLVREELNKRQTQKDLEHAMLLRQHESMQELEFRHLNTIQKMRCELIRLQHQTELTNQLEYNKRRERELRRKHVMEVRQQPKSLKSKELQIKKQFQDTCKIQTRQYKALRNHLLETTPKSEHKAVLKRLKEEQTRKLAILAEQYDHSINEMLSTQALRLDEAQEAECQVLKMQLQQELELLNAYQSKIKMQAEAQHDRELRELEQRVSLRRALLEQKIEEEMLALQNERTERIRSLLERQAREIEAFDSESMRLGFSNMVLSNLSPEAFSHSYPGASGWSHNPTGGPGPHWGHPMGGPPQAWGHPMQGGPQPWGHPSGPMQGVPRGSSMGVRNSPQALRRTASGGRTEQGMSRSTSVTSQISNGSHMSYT
Chain of 476 purified kinases (Homo sapiens, UniProt Q56UN5) (Q56UN5 whole entry): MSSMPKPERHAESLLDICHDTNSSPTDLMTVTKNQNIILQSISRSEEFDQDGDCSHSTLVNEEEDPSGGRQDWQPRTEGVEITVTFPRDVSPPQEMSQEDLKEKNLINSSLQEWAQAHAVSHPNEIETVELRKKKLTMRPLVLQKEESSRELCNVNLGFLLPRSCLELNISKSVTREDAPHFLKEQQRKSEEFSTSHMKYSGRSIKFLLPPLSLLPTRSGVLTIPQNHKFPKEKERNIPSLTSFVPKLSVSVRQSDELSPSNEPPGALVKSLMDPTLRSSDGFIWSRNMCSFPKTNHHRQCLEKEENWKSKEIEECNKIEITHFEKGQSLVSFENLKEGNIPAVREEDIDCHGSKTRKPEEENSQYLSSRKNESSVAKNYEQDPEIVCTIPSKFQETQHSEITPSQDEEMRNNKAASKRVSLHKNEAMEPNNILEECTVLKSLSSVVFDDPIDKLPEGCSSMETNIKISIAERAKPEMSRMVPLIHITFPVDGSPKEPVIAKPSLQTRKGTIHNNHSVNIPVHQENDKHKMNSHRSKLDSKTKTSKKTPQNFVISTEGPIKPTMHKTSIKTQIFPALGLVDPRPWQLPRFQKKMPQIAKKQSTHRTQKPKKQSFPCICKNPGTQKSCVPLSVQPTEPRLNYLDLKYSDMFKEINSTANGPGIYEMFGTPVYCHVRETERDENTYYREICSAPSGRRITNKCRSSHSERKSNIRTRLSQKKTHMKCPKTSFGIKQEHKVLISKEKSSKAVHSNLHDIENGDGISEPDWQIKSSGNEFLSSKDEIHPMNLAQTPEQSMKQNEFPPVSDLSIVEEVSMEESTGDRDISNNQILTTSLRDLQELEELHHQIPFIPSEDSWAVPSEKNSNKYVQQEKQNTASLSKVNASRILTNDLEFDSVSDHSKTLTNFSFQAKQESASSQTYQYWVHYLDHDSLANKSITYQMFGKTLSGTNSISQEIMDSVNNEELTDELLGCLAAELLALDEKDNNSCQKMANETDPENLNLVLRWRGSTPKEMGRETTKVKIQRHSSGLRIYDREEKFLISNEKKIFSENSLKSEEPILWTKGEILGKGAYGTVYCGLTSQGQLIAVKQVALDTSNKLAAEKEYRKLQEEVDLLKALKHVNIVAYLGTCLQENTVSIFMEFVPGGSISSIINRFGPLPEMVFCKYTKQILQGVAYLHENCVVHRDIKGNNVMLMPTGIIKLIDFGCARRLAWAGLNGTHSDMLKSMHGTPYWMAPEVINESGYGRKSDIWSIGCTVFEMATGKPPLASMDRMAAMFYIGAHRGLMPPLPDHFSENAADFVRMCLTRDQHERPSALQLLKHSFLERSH
Chain of 476 purified kinases (Homo sapiens, UniProt Q9UKI8) (Q9UKI8 whole entry): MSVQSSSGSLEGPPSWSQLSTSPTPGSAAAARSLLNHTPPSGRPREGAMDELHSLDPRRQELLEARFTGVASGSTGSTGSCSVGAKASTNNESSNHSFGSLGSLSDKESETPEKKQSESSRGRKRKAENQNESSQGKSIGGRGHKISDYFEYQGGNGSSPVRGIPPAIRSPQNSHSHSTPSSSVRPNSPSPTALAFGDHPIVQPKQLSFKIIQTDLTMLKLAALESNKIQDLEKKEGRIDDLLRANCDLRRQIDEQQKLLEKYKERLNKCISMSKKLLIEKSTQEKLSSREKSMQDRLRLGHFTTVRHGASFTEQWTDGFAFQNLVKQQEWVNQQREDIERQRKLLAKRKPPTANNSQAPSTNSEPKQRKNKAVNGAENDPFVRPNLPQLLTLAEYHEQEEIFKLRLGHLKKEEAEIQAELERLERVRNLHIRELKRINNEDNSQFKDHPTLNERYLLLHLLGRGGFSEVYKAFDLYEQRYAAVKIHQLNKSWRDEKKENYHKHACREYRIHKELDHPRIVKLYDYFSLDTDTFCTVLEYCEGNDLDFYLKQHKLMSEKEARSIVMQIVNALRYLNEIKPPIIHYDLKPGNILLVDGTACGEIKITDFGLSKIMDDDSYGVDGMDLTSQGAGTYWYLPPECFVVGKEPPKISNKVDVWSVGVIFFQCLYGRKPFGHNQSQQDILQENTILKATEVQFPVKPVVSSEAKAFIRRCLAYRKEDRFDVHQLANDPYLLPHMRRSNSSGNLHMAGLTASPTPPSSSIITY

Cc1nc(Nc2ncc(C(=O)Nc3c(C)cccc3Cl)s2)cc(N2CCN(CCO)CC2)n1 [Dasatinib]
SGKL (SGK3) (kinase profiling) (476 purified kinases [1]; 10 nM): 7 | SGKL (SGK3) (kinase profiling) (476 purified kinases [1]; 10 nM + 10 µM FKBP12): 6 | CAMK1G (CAMKI gamma) (kinase profiling) (476 purified kinases [2]; 10 nM): 1 | CAMK1G (CAMKI gamma) (kinase profiling) (476 purified kinases [2]; 10 nM + 10 µM FKBP12): -5 | CSNK1A1 (CK1 alpha 1) (kinase profiling) (476 purified kinases [3]; 10 nM): -1 | CSNK1A1 (CK1 alpha 1) (kinase profiling) (476 purified kinases [3]; 10 nM + 10 µM FKBP12): 8 | DCAMKL1 (DCLK1) (kinase profiling) (476 purified kinases [4]; 10 nM): 1 | DCAMKL1 (DCLK1) (kinase profiling) (476 purified kinases [4]; 10 nM + 10 µM FKBP12): 4 | GSG2 (Haspin) (kinase profiling) (476 purified kinases [5]; 10 nM): -6 | GSG2 (Haspin) (kinase profiling) (476 purified kinases [5]; 10 nM + 10 µM FKBP12): 0 | HIPK1 (Myak) (kinase profiling) (476 purified kinases [6]): 1 | MAPK14 (p38 alpha) (kinase profiling) (476 purified kinases [7]; 10 nM): 3 | MAPK14 (p38 alpha) Direct (kinase profiling) (476 purified kinases [7]; 10 nM): 14 | MAPK14 (p38 alpha) (kinase profiling) (476 purified kinases [7]; 10 nM + 10 µM FKBP12): -4 | MAPK14 (p38 alpha) Direct (kinase profiling) (476 purified kinases [7]; 10 nM + 10 µM FKBP12): 13 | ANKK1 (LanthaScreen Binding) (476 purified kinases [8]; 10 nM compound): 1 | ANKK1 (LanthaScreen Binding) (476 purified kinases [8]; 10 nM compound + 10 µM FKBP12): 11 | CDK9/cyclin T1 (kinase profiling) (476 purified kinases [9]): 8 | DCAMKL2 (DCK2) (kinase profiling) (476 purified kinases [10]; 10 nM): 7 | DCAMKL2 (DCK2) (kinase profiling) (476 purified kinases [10]; 10 nM + 10 µM FKBP12): 12 | TGFBR2 (LanthaScreen Binding) (476 purified kinases [11]; 10 nM compound): -5 | TGFBR2 (LanthaScreen Binding) (476 purified kinases [11]; 10 nM compound + 10 µM FKBP12): -5 | LATS2 (LanthaScreen Binding) (476 purified kinases [12]; 10 nM compound): 3 | LATS2 (LanthaScreen Binding) (476 purified kinases [12]; 10 nM compound + 10 µM FKBP12): 2 | DAPK2 (LanthaScreen Binding) (476 purified kinases [13]): -11 | PIM3 (kinase profiling) (476 purified kinases [14]; 10 nM): 4 | PIM3 (kinase profiling) (476 purified kinases [14]; 10 nM + 10 µM FKBP12): -6 | CDC42 BPG (MRCKG) (kinase profiling) (476 purified kinases [15]; 10 nM): 7 | CDC42 BPG (MRCKG) (kinase profiling) (476 purified kinases [15]; 10 nM + 10 µM FKBP12): -1 | BMPR2 (LanthaScreen Binding) (476 purified kinases [16]; 10 nM compound): 0 | BMPR2 (LanthaScreen Binding) (476 purified kinases [16]; 10 nM compound + 10 µM FKBP12): 3 | CDK1/cyclin B (kinase profiling) (476 purified kinases [17]; 10 nM): 3 | CDK1/cyclin B (kinase profiling) (476 purified kinases [17]; 10 nM + 10 µM FKBP12): 3 | MAP3K7/MAP3K7IP1 (TAK1-TAB1) (LanthaScreen Binding) (476 purified kinases [18]): -7 | MAP3K3 (MEKK3) (LanthaScreen Binding) (476 purified kinases [19]; 10 nM compound): 1 | MAP3K3 (MEKK3) (LanthaScreen Binding) (476 purified kinases [19]; 10 nM compound + 10 µM FKBP12): 3 | GRK1 (LanthaScreen Binding) (476 purified kinases [20]; 10 nM compound): 2 | GRK1 (LanthaScreen Binding) (476 purified kinases [20]; 10 nM compound + 10 µM FKBP12): 7 | ADCK3 (LanthaScreen Binding) (476 purified kinases [21]; 10 nM compound): -1 | ADCK3 (LanthaScreen Binding) (476 purified kinases [21]; 10 nM compound + 10 µM FKBP12): 16 | TAOK1 (LanthaScreen Binding) (476 purified kinases [22]; 10 nM compound): -5 | TAOK1 (LanthaScreen Binding) (476 purified kinases [22]; 10 nM compound + 10 µM FKBP12): 1 | CAMKK2 (CaMKK beta) (LanthaScreen Binding) (476 purified kinases [23]; 10 nM compound): 3 | CAMKK2 (CaMKK beta) (LanthaScreen Binding) (476 purified kinases [23]; 10 nM compound + 10 µM FKBP12): 8 | MAP4K3 (GLK) (LanthaScreen Binding) (476 purified kinases [24]; 10 nM compound): 1 | MAP4K3 (GLK) (LanthaScreen Binding) (476 purified kinases [24]; 10 nM compound + 10 µM FKBP12): 6 | HIPK2 (kinase profiling) (476 purified kinases [25]; 10 nM): 8 | HIPK2 (kinase profiling) (476 purified kinases [25]; 10 nM + 10 µM FKBP12): 11 | MAP3K19 (YSK4) (kinase profiling) (476 purified kinases [26]; 10 nM): 3 | MAP3K19 (YSK4) (kinase profiling) (476 purified kinases [26]; 10 nM + 10 µM FKBP12): -1 | CDK13/cyclin K (LanthaScreen Binding) (476 purified kinases [27]; 10 nM compound): 4 | CDK13/cyclin K (LanthaScreen Binding) (476 purified kinases [27]; 10 nM compound + 10 µM FKBP12): -3 | PIK3C2G (PI3K-C2 gamma) (Adapta) (476 purified kinases [28]; 10 nM compound): 3 | PIK3C2G (PI3K-C2 gamma) (Adapta) (476 purified kinases [28]; 10 nM compound + 10 µM FKBP12): -4 | RPS6KB1 (p70S6K) (kinase profiling) (476 purified kinases [29]; 10 nM): 5 | RPS6KB1 (p70S6K) (kinase profiling) (476 purified kinases [29]; 10 nM + 10 µM FKBP12): 0 | TLK1 (LanthaScreen Binding) (476 purified kinases [30]; 10 nM compound): -1 | TLK1 (LanthaScreen Binding) (476 purified kinases [30]; 10 nM compound + 10 µM FKBP12): 4 | STK38L (NDR2) (LanthaScreen Binding) (476 purified kinases [31]; 10 nM compound): -2 | STK38L (NDR2) (LanthaScreen Binding) (476 purified kinases [31]; 10 nM compound + 10 µM FKBP12): -3 | EIF2AK2 (PKR) (LanthaScreen Binding) (476 purified kinases [32]; 10 nM compound): -5 | EIF2AK2 (PKR) (LanthaScreen Binding) (476 purified kinases [32]; 10 nM compound + 10 µM FKBP12): -10 | INSRR (IRR) (kinase profiling) (476 purified kinases [33]; 10 nM): 4 | INSRR (IRR) (kinase profiling) (476 purified kinases [33]; 10 nM + 10 µM FKBP12): 21 | CAMK2B (CaMKII beta) (kinase profiling) (476 purified kinases [34]; 10 nM): 7 | CAMK2B (CaMKII beta) (kinase profiling) (476 purified kinases [34]; 10 nM + 10 µM FKBP12): 7 | CDKL5 (kinase profiling) (476 purified kinases [35]; 10 nM): 5 | CDKL5 (kinase profiling) (476 purified kinases [35]; 10 nM + 10 µM FKBP12): 7 | ERN1 (LanthaScreen Binding) (476 purified kinases [36]; 10 nM compound): 0 | ERN1 (LanthaScreen Binding) (476 purified kinases [36]; 10 nM compound + 10 µM FKBP12): 0
